Measurements from patent US20240051946A1, “TARGETED PROTEIN DEGRADATION OF PARP14 FOR USE IN THERAPY” (Ribon Therapeutics, Inc., priority 2022, published 2024).
Counter-ions that a name gives are not always drawn. Blank lines part the entries; values can stand above or below the compound they belong to.

What was measured:
[1] = tested on: Alternaria asthma mouse model; assay: Alternaria asthma mouse model: cell counts and cytokines in BALF; type: in vivo; conditions: for total cell counts in BALF: 30 and 100 mg/kg once daily for 7 days subcutaneous, vs vehicle P<0.05
Description: The effect of Compound 17 was studied in an Alternaria asthma mouse model. On days 1-5, male Balb/c mice under isoflurane anesthesia were challenged by instilling solution of 5 μg (protein weight) Alternaria in 40 μL of PBS into each nostril. Compound 17 was administered two days prior to Alternaria challenge (defined day as day −1) and animals were treated with vehicle (10% DMSO/45% PEG-400/45% ‘20% HP-3-CD’ in water) or Compound 17 (30 and 100 mg/kg) once daily for 7 days (defined as day −1 to day 5) by subcutaneous injection. Total and differential cell counts of the BALF fluid samples were measured using a XT-2000iV analyzer (Sysmex). Cytokine concentrations of BALF supernatant were measured in samples from all groups using ELISA kit (Biotechne, UK). Statistical significance is calculated using one-way ANOVA followed by Dunnett's post-tests in which the treatment groups were compared to vehicle control (P<0.05).

[2] = molecular target: T1, catalytic domain of human PARP14 (residues 1611 to 1801) with NanoLuc tag (Homo sapiens, UniProt Q460N5); assay: NanoLuc assay for the degradation of PARP14; type: cell-based; conditions: Assay A; NanoLuc-PARP14 overexpressed in HEK-293T cells; 2 hours at 37 degrees; luminescence
T1 construct: expressed in transfected cells; host or cells: HEK-293T cells (ATCC), plasmid pRTX240 in pcDNA3.1(-)
T1 sequence (Q460N5 1611-1801): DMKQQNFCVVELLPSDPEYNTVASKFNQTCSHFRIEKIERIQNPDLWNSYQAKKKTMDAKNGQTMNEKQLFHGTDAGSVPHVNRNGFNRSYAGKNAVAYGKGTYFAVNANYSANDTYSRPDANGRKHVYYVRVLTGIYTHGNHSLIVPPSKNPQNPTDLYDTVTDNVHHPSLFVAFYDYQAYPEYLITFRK
How it was run: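 HEK-293T cells transiently transfected 24 hrs with N-terminal NanoLuc-tagged human PARP14 catalytic domain (residues 1611-1801), then exposed to compound dose response for 2 hours at 37 degrees. NanoGlo luminescence expressed as % of 0.1% DMSO wells; DC50 from floating 4-parameter fit, reported as banded ranges.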

PARP14 = molecular target: T2, PARP14 (Homo sapiens, UniProt Q460N5); assay: HiBiT assay for the degradation of PARP14 (HiBiT tagged PARP14 in LgBiT expressing Jurkat cells); type: cell-based; conditions: Assay B, 37° C. for 2 or 24 hours, luminescence, read-out: DC50
T2 construct: engineered to contain a HiBiT tag on both alleles of the PARP14 gene; endogenous in cells; host or cells: Jurkat cells stably expressing LgBiT (Promega), with CRISPR/Cas9 knock-in of HiBiT at the PARP14 locus
T2 sequence (Q460N5 whole entry): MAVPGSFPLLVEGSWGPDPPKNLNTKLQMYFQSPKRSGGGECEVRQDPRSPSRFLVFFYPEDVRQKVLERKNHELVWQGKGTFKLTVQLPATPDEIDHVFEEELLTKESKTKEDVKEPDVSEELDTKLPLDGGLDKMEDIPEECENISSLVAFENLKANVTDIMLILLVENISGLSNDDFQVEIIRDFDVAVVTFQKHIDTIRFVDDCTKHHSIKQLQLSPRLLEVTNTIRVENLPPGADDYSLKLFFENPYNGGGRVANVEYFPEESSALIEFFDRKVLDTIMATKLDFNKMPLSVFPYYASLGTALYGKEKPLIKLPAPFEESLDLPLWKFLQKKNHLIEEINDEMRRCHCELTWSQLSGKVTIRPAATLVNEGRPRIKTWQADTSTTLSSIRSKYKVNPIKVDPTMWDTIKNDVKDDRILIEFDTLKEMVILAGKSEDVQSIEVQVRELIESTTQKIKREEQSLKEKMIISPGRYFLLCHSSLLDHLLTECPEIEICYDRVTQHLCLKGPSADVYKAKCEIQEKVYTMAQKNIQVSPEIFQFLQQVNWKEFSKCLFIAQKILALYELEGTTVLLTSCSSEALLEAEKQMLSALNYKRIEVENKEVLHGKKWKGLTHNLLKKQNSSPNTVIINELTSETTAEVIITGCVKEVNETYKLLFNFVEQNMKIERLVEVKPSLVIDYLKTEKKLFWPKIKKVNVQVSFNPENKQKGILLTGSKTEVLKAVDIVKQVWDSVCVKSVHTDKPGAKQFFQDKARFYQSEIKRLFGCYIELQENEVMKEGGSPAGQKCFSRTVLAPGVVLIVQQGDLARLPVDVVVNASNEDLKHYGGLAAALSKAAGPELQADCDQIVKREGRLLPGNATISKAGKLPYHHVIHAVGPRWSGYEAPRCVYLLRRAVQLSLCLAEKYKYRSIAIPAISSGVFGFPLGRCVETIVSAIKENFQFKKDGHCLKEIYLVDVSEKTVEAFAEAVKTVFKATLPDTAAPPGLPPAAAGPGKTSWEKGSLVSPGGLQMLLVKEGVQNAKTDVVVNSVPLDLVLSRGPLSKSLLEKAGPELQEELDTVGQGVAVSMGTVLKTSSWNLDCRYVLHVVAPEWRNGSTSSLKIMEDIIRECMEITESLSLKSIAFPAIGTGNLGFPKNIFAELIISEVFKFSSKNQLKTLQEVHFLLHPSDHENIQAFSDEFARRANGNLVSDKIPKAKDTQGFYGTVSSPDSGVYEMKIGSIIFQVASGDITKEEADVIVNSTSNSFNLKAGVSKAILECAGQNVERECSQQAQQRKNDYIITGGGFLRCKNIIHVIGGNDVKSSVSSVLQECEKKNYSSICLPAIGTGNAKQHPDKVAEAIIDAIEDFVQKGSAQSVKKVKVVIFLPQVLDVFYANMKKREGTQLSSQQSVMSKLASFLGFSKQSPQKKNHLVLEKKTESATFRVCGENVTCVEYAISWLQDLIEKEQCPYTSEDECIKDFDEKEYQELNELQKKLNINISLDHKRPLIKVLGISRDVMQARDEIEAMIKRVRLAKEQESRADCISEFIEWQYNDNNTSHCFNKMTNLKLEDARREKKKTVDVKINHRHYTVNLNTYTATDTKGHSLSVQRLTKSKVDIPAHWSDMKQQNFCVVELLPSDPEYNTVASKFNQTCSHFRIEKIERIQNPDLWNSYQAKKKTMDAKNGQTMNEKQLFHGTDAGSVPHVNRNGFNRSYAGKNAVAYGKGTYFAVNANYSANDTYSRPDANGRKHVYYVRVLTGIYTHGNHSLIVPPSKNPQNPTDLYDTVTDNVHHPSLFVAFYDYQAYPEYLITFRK
Description: Jurkat cells stably transfected with LgBiT (Promega) were engineered to contain a HiBiT tag on both alleles of the PARP14 gene (Genbank Accession Number: NM_017554) via CRISPR/Cas9 editing. The HiBiT tag is an 11 amino acid tag created by Promega that associates with LgBiT protein to form the NanoLuc® tag on the C-terminus of PARP14. Clones were isolated and confirmed for the HiBiT tag via Sanger sequencing.
Degradation of PARP14 protein was assessed by measuring the luminescence of the HiBiT tag associating with the LgBiT protein as a proxy for the PARP14 protein. Jurkat cells were diluted to 250,000 cells per mL and then added to assay plate (Corning 3574) using a Multidrop (Thermo Fisher) to add 20 μL per well of the 384 well plate, resulting in 5,000 cells per well. 20 nL of a dose response curve diluted in DMSO of each test compound was added to the cell plate using a Mosquito (TTP Labtech) and the plate was incubated at 37° C. for 2 or 24 hours. Assay plate was brought to room temperature then 5 μL per well of Live Cell Substrate (Promega) was added to the plate. Luminescence was measured on an Envision (Perkin Elmer).
The average DMSO was calculated from 32 wells containing 0.1% DMSO only in columns 12 and 24 of the assay plate. The % of DMSO values were calculated as described below: […]
The % of DMSO values were plotted as a function of compound concentration and the following 4-parameter fit was applied to derive the DC50 values:
where top, bottom, and Hill Coefficient are allowed to float. Y is the % of DMSO and X is the compound concentration.
DC50 data for the Example compounds is provided below in Table 2 (“+” is <0.03 μM; “++” is ≥0.03 μM).

[3] = male Balb/c mice, Alternaria challenge, 30 and 100 mg/kg once daily 7 days s.c., dose-dependent starting from 30 mg/kg

DC50 [2]: < 100 nM
SMILES: O=C1CCC(Nc2ccc(C3CCN(CC4CCN(C(=O)CN5CCC(SCc6nc7cc(OCC8CCOCC8)cc(F)c7c(=O)[nH]6)CC5)CC4)CC3)cc2)C(=O)N1 (centres unmarked) [Example 17, 3-((4-(1-((1-(2-(4-(((5-fluoro-4-oxo-7-((tetrahydro-2H-pyran-4-yl)methoxy)-3,4-dihydroquinazolin-2-yl)methyl)thio)piperidin-1-yl)acetyl)piperidin-4-yl)methyl)piperidin-4-yl)phenyl)amino)piperidine-2,6-dione]
eosinophil in BALF ([1]; FIG. 2A legend, dose-dependent starting from 100 mg/kg): significantly reduces
cytokine IL-33 in BALF ([1]; FIG. 2B legend, dose-dependent starting from 100 mg/kg): significantly reduces
cytokine IL-4 in BALF ([1]; FIG. 2C legend, dose-dependent starting from 100 mg/kg): significantly reduces
cytokine IL-5 in BALF ([1]; FIG. 2D legend, dose-dependent starting from 100 mg/kg): significantly reduces
cytokine IL-4 in BALF [1, 3]: significantly reduces
cytokine IL-5 in BALF [1, 3]: significantly reduces
cytokine IL-33 in BALF [1, 3]: significantly reduces
eosinophils in BALF [1, 3]: significantly reduces
total cell counts in BALF ([1]; male Balb/c mice, Alternaria challenge, dose-dependent starting from 30 mg/kg): dose-dependent reduction
total cell counts in BALF ([1]; male Balb/c mice, Alternaria challenge, dose-dependent starting from 30 mg/kg, listed as Compound 17): significantly reduces

DC50 (PARP14): < 30 nM
SMILES: O=C1CCC(Nc2ccc(N3CCC(CN4CCC(SCc5nc6cc(OCC7CC7)cc(F)c6c(=O)[nH]5)CC4)CC3)c(F)c2)C(=O)N1 (centres unmarked) [Example 56, 3-((4-(4-((4-(((7-(cyclopropylmethoxy)-5-fluoro-4-oxo-3,4-dihydroquinazolin-2-yl)methyl)thio)piperidin-1-yl)methyl)piperidin-1-yl)-3-fluorophenyl)amino)piperidine-2,6-dione formate]

DC50 (PARP14): < 30 nM
SMILES: O=C1CCC(Nc2ccc(N3CCN(CCN4CCC(SCc5nc6cc(OCC7CCOCC7)cc(F)c6c(=O)[nH]5)CC4)CC3)cc2)C(=O)N1 (centres unmarked) [Example 43, 3-((4-(4-(2-(4-(((5-fluoro-4-oxo-7-((tetrahydro-2H-pyran-4-yl)methoxy)-3,4-dihydroquinazolin-2-yl)methyl)thio)piperidin-1-yl)ethyl)piperazin-1-yl)phenyl)amino)piperidine-2,6-dione]

DC50 (PARP14): < 30 nM
SMILES: O=C1CCC(Nc2ccc(N3CCN(CCN4CCC(OCc5nc6cc(OCC7CCOCC7)cc(F)c6c(=O)[nH]5)CC4)CC3)c(F)c2)C(=O)N1 (centres unmarked) [Example 44, 3-((3-fluoro-4-(4-(2-(4-((5-fluoro-4-oxo-7-((tetrahydro-2H-pyran-4-yl)methoxy)-3,4-dihydroquinazolin-2-yl)methoxy)piperidin-1-yl)ethyl)piperazin-1-yl)phenyl)amino)piperidine-2,6-dione]

DC50 (PARP14): < 30 nM
SMILES: O=C1CCC(Nc2ccc(N3CCC(N4CCC(SCc5nc6cc(OCC7CCOCC7)cc(F)c6c(=O)[nH]5)CC4)CC3)c(F)c2)C(=O)N1 (centres unmarked) [Example 52, 3-((3-fluoro-4-(4-(((5-fluoro-4-oxo-7-((tetrahydro-2H-pyran-4-yl)methoxy)-3,4-dihydroquinazolin-2-yl)methyl)thio)-[1,4′-bipiperidin]-1′-yl)phenyl)amino)piperidine-2,6-dione]

DC50 (PARP14): < 30 nM
SMILES: O=C1CCC(Nc2ccc(N3CCC(C4CCN(CCc5nc6cc(OCC7CC7)cc(F)c6c(=O)[nH]5)CC4)CC3)c(F)c2)C(=O)N1 (centres unmarked) [Example 64, 3-((4-(1′-(2-(7-(cyclopropylmethoxy)-5-fluoro-4-oxo-3,4-dihydroquinazolin-2-yl)ethyl)-[4,4′-bipiperidin]-1-yl)-3-fluorophenyl)amino)piperidine-2,6-dione]

DC50 (PARP14): < 30 nM
SMILES: O=C1CCC(N2C(=O)c3cccc4c(N5CCN(CCN6CCC(SCc7nc8cc(OCC9CC9)cc(F)c8c(=O)[nH]7)CC6)CC5)ccc2c34)C(=O)N1 (centres unmarked) [Example 49, 3-(6-(4-(2-(4-(((7-(cyclopropylmethoxy)-5-fluoro-4-oxo-3,4-dihydroquinazolin-2-yl)methyl)thio)piperidin-1-yl)ethyl)piperazin-1-yl)-2-oxobenzo[cd]indol-1(2H)-yl)piperidine-2,6-dione]
